In patent US9738614B2, “Malignant and non-malignant disease treatment with Ras antagonists” (PISCES THERAPEUTICS, LLC, priority 2011, dated 2017):

Assays:
U87MG cells = test: Cell proliferation assay for U87MG cells; assay type: cell-based
Experimental: (§1) The adult glioblastoma cell line U87MG was obtained from a commercial source (ATCC). The pancreatic cancer cell line PANC-1 was obtained from a local laboratory (Indiana University). Both lines were grown in Iscove's Modified Dulbecco's Medium with 10% fetal bovine serum (FBS) at 37° C. and 5% CO2.
(§2) Compounds (1), (2), (3), (4), and (5), which are shown and described above, were each dissolved in ethanol at 10 mg/mL. A measured portion of the solution was pipetted into a microcentrifuge tube. Then, the ethanol was evaporated from each tube using a SpeedVac®, leaving just the compound in the tube. The appropriate amount of chloroform was added to the tube to produce a 0.1 M concentration. The solutions were placed on ice and in the dark so they could be pipetted into 10- and 20-μL aliquots in 1.5 mL microcentrifuge tubes. The solutions were frozen at […] with lids closed tightly and the tubes covered with foil.
(§3) Prior to treating the cells, a tube of the test compound was removed from the freezer and placed under a biosafety hood to evaporate the chloroform in the tubes. Then, dimethyl sulfoxide (DMSO) was added to the tubes to make the correct concentration to use in the experiment (0.1 M stock). The tubes were vortexed, and warm media with 10% FBS was slowly added to make the correct working concentrations to be used in the experiment. The compounds were directly added to each well for treatment.
U87MG cells were seeded in a 24-well plate, 5000 cells per well, and incubated overnight at 37° C. in serum-free media. The next day they were treated in triplicate with 50 and 100 μM of each test compound (1), (2), (3), (4), and (5) and the reference compound FTS. After five days, the cells were trypsinized (0.5%), stained with trypan blue, and counted to determine the cell number per well. The half-maximal inhibitory concentration (IC50) values were calculated using Multiplex Reader-Fit software made by MiraiBio Group, Hitachi Solutions America, Ltd. In a typical experiment, the control wells averaged 138,000 cells. The results are presented graphically in FIG. 1. The test compounds at 50 μM allowed the following U87MG cell proliferation compared to control: compound (1)—37%, compound (2)—18%, compound (3)—10%, compound (4)—40%, and compound (5)—0%. The reference compound FTS at 50 μM allowed 7% cell proliferation compared to control.
To further evaluate compounds (3) and (5), which inhibited the most cell growth in FIG. 1, more U87MG cells were seeded in 24-well plates, 5000 cells per well, and incubated overnight at 37° C. in serum-free media. The cells were treated the next morning in media with 5% serum in triplicate with standard concentrations of 6.25, 12.5, 25, and 50 μM of each test compound (3) and (5) and the reference compound FTS. After five days of treatment, the cells were trypsinized (0.5%) and then stained with trypan blue. Cells were counted to determine the number of cells per well. Again, the IC50 values were calculated using Multiplex Reader-Fit software made by MiraiBio Group, Hitachi Solutions America, Ltd. In a typical experiment, the control wells averaged 56,000 cells. The results are presented graphically in FIG. 2. The test compounds at 25 μM allowed the following U87MG cell proliferation compared to control: compound (3)—69% and compound (5)—0%. The reference compound FTS at 25 μM allowed over 50% cell proliferation compared to control.
Since the doses of compound (5) used above killed all of the cells, the dose curve was set up again using even lower doses of compound (5). U87MG cells were seeded in 24-well plates, 5000 cells per well, and incubated overnight at 37° C. in serum-free media. The cells were treated in triplicate with 6.25, 12.5, 25, and 50 μM of the reference compound FTS and 0.3125, 0.625, 1.25, 2.5, and 5.0 μM of the test compound (5) in media with 5% serum for five days. Then, the cells were trypsinized (0.5%) and stained with trypan blue, and the cell number per each well was determined. […]

PANC-1 cells = test: Cell proliferation assay for PANC-1 cells; assay type: cell-based; conditions: 12.5 μM, media with 5% serum, five days (FIG. 3)
Experimental: as §1, §2, §3
The cells were treated in triplicate with standard concentrations of 6.25, 12.5, 25, 50, and 100 μM of each test compound (3) and (5) and the reference compound FTS and, when needed, concentrations of 0.625, 1.25, 2.5 and 5.0 μM in media with 5% serum for five days. Then, the cells were stained with trypan blue, and the cell number per each well was determined. Again, the IC50 values were calculated using Multiplex Reader-Fit software made by MiraiBio Group, Hitachi Solutions America, Ltd. In a typical experiment, the control wells averaged 32,500 cells. The results are presented graphically in FIG. 3. […]

Ras-GTP = Ras-GTP Western blot in PDGF-stimulated NF-1-/- Schwann cells; assay type: cell-based, mouse; conditions: 2.5-5 μM, 3 minutes after PDGF stimulation (FIG. 5A)
Experimental: (§4) A purified population of NF-1−/−S 100+Schwann cells isolated from a plexiform neurofibroma in a genetically engineered mouse (Zhu, Y. et al., Science, May 2002, 3; 296(5569)):920-922) were stimulated with a maximum stimulating concentration of platelet derived growth factor (PDGF) in the presence of a control or compound (3) at concentrations of 2.5-5 μM. Ras-GTP was measured 3 minutes subsequently using Western blot analysis. […] In parallel experiments, Schwann cell proliferation was measured using visible spectroscopy 24 hrs after PDGF stimulation in the presence of a control or compound (3) at concentrations of 25-50 μM. […] Each asterisk in FIG. 5B represents a statistical difference relative to the control using analysis of variance. (Yang, Feng-Chun, et. al. J Clin Invest 2003, 112(12), 1851-1861; Yang, Feng-Chun, et. al. Hum Mol Genet 2006, 15(11), 1921-1930).

[1] = tested on: primary human lung fibroblasts; test: Inhibition of TGF-β induced myofibroblast formation (α-SMA Western blot); assay type: cell-based; conditions: TGF-β 72 hours, concentrations below 25 μM
Experimental: Primary human lung fibroblasts were stimulated for 72 hours with transforming growth factor beta (TGF-β) to induce their differentiation to an alpha smooth muscle actin (α-SMA) expressing activated myofibroblasts cell fate. […] The activin like kinase receptor (ALK5) inhibitor SB431542 was used as a positive control. Myofibroblast formation was evaluated by Western blot by examining changes in α-SMA levels.

[2] = tested on: NF-1-/- S100+ Schwann cells; test: NF-1-/- Schwann cell proliferation (visible spectroscopy); assay type: cell-based, mouse; conditions: 25-50 μM, 24 hrs after PDGF stimulation (FIG. 5B)
Experimental: as §4

[3] = tested on: hematopoietic progenitor cells (cord blood low density cells); test: Human hematopoietic progenitor cell toxicity (colony assay); assay type: cell-based; conditions: 12 days; 25 and 2.5 μM for compound (3), 2.5 and 0.25 μM for compound (5)
Experimental: Cord blood low density cells were plated at 1×10^5 cells per plate in 1 mL complete methylcellulose in the presence of each test compound (3) and (5) and incubated for 12 days in a CO2 incubator. Colony-forming unit-granulocyte (CFU-GM), burst-forming unit-erythroid (BFU-E), and mixed colonies were counted under an inverted microscope. […] The test compounds were not toxic to the hematopoietic progenitor cells.

[4] = 50 μM, five days, trypan blue cell count (FIG. 1)
[5] = 25 μM, media with 5% serum, five days (FIG. 2)

SMILES | U87MG cell proliferation compared to control (U87MG cells; [4]) | U87MG cell proliferation compared to control (U87MG cells; 6.25 μM, media with 5% serum, five days (FIG. 2)) | U87MG cell proliferation compared to control (U87MG cells; [5]) | PANC-1 cell proliferation compared to control (PANC-1 cells) | IC50 (U87MG cells; Homo sapiens, U-87 MG, value quoted in Example 7, read-out: IC50 as determined on the U87MG cells) | level of Ras-GTP relative to the control (Ras-GTP) | inhibition of myofibroblast formation [1] | Schwann cell proliferation relative to the control [2] | toxicity to hematopoietic progenitor cells (CFU-GM, BFU-E, mixed colonies) [3]
CCOC(=O)c1nnsc1SC/C=C(\C)CC/C=C(\C)CCC=C(C)C [compound (4), Ethyl 5-{[(2E,6E)-3,7,11-trimethyldodeca-2,6,10-trien-1-yl]sulfanyl}-1,2,3-thiadiazole-4-carboxylate] | 40% | – | – | – | – | – | – | – | –
CC(C)=CCC/C(C)=C/CC/C(C)=C/CSc1ccccc1C(=O)O [FTS, farnesyl-thiosalicylic acid, reference compound] | 7% | over 80% | over 50% | over 80% | – | – | – | – | –
CC(C)=CCC/C(C)=C/CC/C(C)=C/CSc1ccccc1-c1nn[nH]n1 [compound (1), 5-(2-{[(2E,6E)-3,7,11-trimethyldodeca-2,6,10-trien-1-yl]sulfanyl}phenyl)-2H-1,2,3,4-tetrazole] | 37% | – | – | – | – | – | – | – | –
CC(C)=CCC/C(C)=C/CC/C(C)=C/CSc1ccsc1C(=O)O [compound (3), 3-{[(2E,6E)-3,7,11-trimethyldodeca-2,6,10-trien-1-yl]sulfanyl}thiophene-2-carboxylic acid] | 10% | – | 69% | 41% | 25 µM | significantly reduced | did not inhibit | reduced | not toxic
